Test results reported in US20080019961A1, “Hedgehog signaling pathway antagonist cancer treatment” (Regents of the University of Michigan, priority 2006, published 2008).
Read-outs that look alike come from different tables or passages of the source. Square brackets hold non-standard residues; d marks the D form. Peptide text beside a SMILES is read from it. * marks the point of attachment. Nle = CCCC[C@H](N)C(=O)O; Cbz = O=C(OCc1ccccc1)*

Assays:
Type in all cases: cell-based, human
[1] = system: mammosphere branching morphogenesis; assay: Mammosphere branching morphogenesis in 3-D Matrigel culture; settings: 300 nM Cyclopamine
Method: Briefly, 30 mammospheres were suspended in 1 ml of BD Matrigel™ Matrix (Cat. 354234, BD Biosciences, Palo Alto, Calif.) and Ham's F-12 medium (BioWbittaker) with 5% serum at a ratio of 1:1, and plated 1 ml of the mixture into one well of 24-well cold plates and each group of mammospheres was performed in quadruplicates. After the matrigel was solidified, 1 ml of Ham's F-12 medium (BioWhittaker) with 5% serum was added to the top of the matrigel. The experiments were repeated with mammospheres derived from at least three different patients.

[2] = system: PTCH1, Gli1, Gli2 and HES1 mRNA; assay: Hh and Notch pathway gene mRNA in mammospheres by real-time RT-PCR; settings: for block of Shh-induced PTCH1, Gli1, Gli2 and HES1 expression: 3 μg/ml Shh with 300 nM Cyclopamine or 5 μM GSI; for block of DSL-induced HES1, PTCH1, Gli1 and Gli2 expression: 10 μM DSL with 5 μM GSI or 300 nM Cyclopamine
Method: Single cells from epithelial organoids were plated in 6-well ultra-low attachment plates (Coming) at a density of 100,000 viable cells/ml. Cells were cultured in 2 ml of a serumfree MEBM per well. […] Cells were incubated for 7 days in the presence of different treatments as follows. For the treatment with Hedgehog agonists and antagonist, Shh was used at 1.5 μg/ml, 3 μg/ml and 6 μg/ml in the presence or absence of 300 riM of CP or 5 μM of GSI. CP was used at 150 nM, 300 nM and 600 nM concentrations, and the control was 12% 1×PBS with 0.06% BSA. For the treatment with Notch agonists and antagonist, DSL was used at 10 μM in the presence or absence of 5 μM of GSI or 300 nM of CP, and the controls consisted of 10 μM of scrambled Notch peptide. All treatments were continued for 10 days, with agonists and antagonists added every two or three days when medium was changed.
Mammospheres were then collected for in vitro self-renewal assays and Real-time quantitative RT-PCR. For reverse-transcriptase reactions, 1 μg of total RNA from mammospheres or differentiated cells on collagen-coated plates was reverse transcribed with 200 U M-MLV Reverse Transcriptase (GibcoBRL) at 42° C. for 1 hour in the presence of 5 mM each of dATP, dCTP, dGTP and dTTP, 4 μl 5× 1 st strand buffer (GibcoBRL), 0.01M DDT, 1 U RNA Guard RNase inhibitor (GibcoBRL), and 2.5 µM random primers in a total volume of 20 μl. The reaction was terminated by heating to 95° C. for 3 minutes. Real-time quantitative PCR (TaqMan™) primers and probes were purchased from AppliedBiosytems as Assays-on-Demand™ Gene Expression Products. Real-time PCRs were performed following the supplier's instructions (Applied Biosystems). 20 μl of PCR mixture contained 10 μl of 2× Taqman™ universal PCR Master Mix, 1 μl of 20× working stock of gene expression assay mix, and 50 ng of RNA converted cDNA. PCR was performed in a ABI PRISM® 7900HT sequence detection system with 384-Well block module and automation accessory (Applied Biosystems) by incubation at 50° C. for 2 min and then 95° C. for 10 min followed by 40 amplification cycles (15 s of denaturation at 95° C. and 1 min of hybridization and elongation at 60° C.). The reaction for each sample was performed in quadruplicates. Fluorescence of the PCR products was detected by the same apparatus. The number of cycles that it takes for amplification plot to reach the threshold limit, the Ct-value was used for quantification. RPLP0 was used for normalization.
In order to determine whether activation of the Notch pathway could affect Hh targets, Notch signaling was activated by utilizing the DSL ligand which binds to all Notch receptors (Dontu et al., 2004).

Bmi-1 mRNA = Bmi-1 mRNA in mammospheres by real-time RT-PCR; settings: for block of Shh-induced Bmi-1 expression: Shh with Cyclopamine or GSI
[3] = system: mammary stem/progenitor cells in mammospheres; assay: Primary and secondary mammosphere formation (in vitro self-renewal assay)

Row | SMILES | effect on branch formation [1] | block of Shh-induced PTCH1, Gli1, Gli2 and HES1 expression [2] | block of DSL-induced HES1, PTCH1, Gli1 and Gli2 expression [2] | block of Shh-induced Bmi-1 expression (Bmi-1 mRNA) | Cyclopamine inhibition of primary mammosphere formation on addition of Shh [3] | Cyclopamine inhibition of secondary mammosphere formation on addition of Shh [3] | block of DSL-stimulated mammary stem cell self-renewal [3] | block of the Shh effect on mammary stem cell self-renewal [3] | decrease of average cell number in primary mammospheres vs control [3] [%] | decrease of average cell numbers per secondary mammosphere [3] [%] | decrease of primary mammosphere formation vs control [3] [%] | decrease of secondary mammospheres vs control [3] [%] | effect of Cyclopamine on the effects of Gli1 or Gli2 overexpression [3] | effects on mammosphere formation, lowest dose [3] | block of DSL-induced Bmi-1 expression (Bmi-1 mRNA; DSL with GSI or Cyclopamine) | block of the Shh effect on mammary stem cell self-renewal ([3]; 3 μg/ml Shh with 300 nM Cyclopamine or 5 μM GSI) | block of DSL-stimulated mammary stem cell self-renewal ([3]; 10 μM DSL with 5 μM GSI or 300 nM Cyclopamine)
1 | CC1=C2C[C@H]3[C@@H](CC=C4C[C@@H](O)CC[C@@]43C)[C@@H]2CC[C@]12O[C@@H]1C[C@H](C)CN[C@H]1[C@H]2C [Cyclopamine] | almost completely blocked branch formation | partially blocked | partially blocked and not | blocked | reversal of inhibition | reversed | not | blocked | 51 | 56 | 45 | 54 | unaffected | no effects | – | – | –
2 | CCCC[C@@H](C=O)NC(=O)[C@H](CC(C)C)NC(=O)[C@H](CC(C)C)NC(=O)OCc1ccccc1 [GSI, Z-Leu-Leu-Nle-CHO] (Cbz-Leu-Leu-[Nle]-aldehyde) | – | not | completely blocked | not | – | – | – | – | – | – | – | – | – | – | completely blocked | did not block | blocked
